The nature of series [1]: Stability study: solvents (water) content of crystalline form lots on storage.
Series [2] in a line: Stability study: total related substances of crystalline form lots on storage.
Setting [3] is: accelerated conditions 25° C., 60% relative humidity.

As to `Nc1nc2[nH]cc(CCc3ccc(C(=O)N[C@@H](CCC(=O)O)C(=O)O)cc3)c2c(=O)[nH]1` [Lot D, pemetrexed disodium], the “change in water content over time” value in series [1] (setting [3]) is reported as “shows an increase in water content to the heptahydrate form”. Moreover, the “Solvents Results” value is 8.5% of Total in series [1] (accelerated conditions 25° C., 60% relative humidity, 0 months, water only); 14.0% of Total in series [1] (accelerated conditions 25° C., 60% relative humidity, 1 month, water only); 20.5% of Total in series [1] (accelerated conditions 25° C., 60% relative humidity, 2 months, water only); 20.8% of Total in series [1] (accelerated conditions 25° C., 60% relative humidity, 3 months, water only); 21.2% of Total in series [1] (accelerated conditions 25° C., 60% relative humidity, 6 months, water only); 8.5% of Total in series [1] (stored at 5° C., 0 months, lots A-C water and ethanol, lot D water only). The “Solvents Results” value in series [1] (stored at 5° C., 3 months) is 14.0% of Total; in series [1] (stored at 5° C., 6 months) it was 18.2% of Total; in series [1] (stored at 5° C., 9 months), 21.1% of Total; in series [1] (stored at 5° C., 12 months), 21.7% of Total. The “change in the percent total related substances over time” value in series [2] (2.5 hydrate lots stored at 5° C.) is “did not change significantly over time”; in series [2] (setting [3]), “did not increase somewhat over time”. In addition, the “Total Related Substances Results” value was 0.31% of Total in series [2] (accelerated conditions 25° C., 60% relative humidity, 0 months); 0.31% of Total in series [2] (accelerated conditions 25° C., 60% relative humidity, 1 month); 0.45% of Total in series [2] (accelerated conditions 25° C., 60% relative humidity, 2 months); 0.40% of Total in series [2] (accelerated conditions 25° C., 60% relative humidity, 3 months); 0.32% of Total in series [2] (accelerated conditions 25° C., 60% relative humidity, 6 months); 0.31% of Total in series [2] (stored at 5° C., 0 months). Moreover, the “Total Related Substances Results” value in series [2] (stored at 5° C., 3 months) is 0.35% of Total; in series [2] (stored at 5° C., 6 months) it was 0.33% of Total; in series [2] (stored at 5° C., 9 months), 0.42% of Total; in series [2] (stored at 5° C., 12 months) it was 0.24% of Total.
